Laboratory results published in ChEMBL document CHEMBL4627246, “Pyroglutamide-Based P2X7 Receptor Antagonists Targeting Inflammatory Bowel Disease” (J Med Chem, 2020).

Experiments:
Type in all cases: cell-based
SN12C = assay: Cytotoxicity against human SN12C cells assessed as effect on cell growth at 10 uM incubated for 48 hrs by sulforhodamine B assay
SF-268 = assay: Cytotoxicity against human SF268 cells assessed as effect on cell growth at 10 uM incubated for 48 hrs by sulforhodamine B assay; details: sf-268, 48 h
HOP-92 = assay: Cytotoxicity against human HOP92 cells assessed as effect on cell growth at 10 uM incubated for 48 hrs by sulforhodamine B assay; details: hop-92, 48 h
SK-MEL-28 = assay: Cytotoxicity against human SK-MEL-28 cells assessed as effect on cell growth at 10 uM incubated for 48 hrs by sulforhodamine B assay; details: sk-mel-28, 48 h
HT-29 = assay: Cytotoxicity against human HT-29 cells assessed as effect on cell growth at 10 uM incubated for 48 hrs by sulforhodamine B assay; details: ht-29, 48 h
OVCAR-5 = assay: Cytotoxicity against human OVCAR5 cells assessed as effect on cell growth at 10 uM incubated for 48 hrs by sulforhodamine B assay; details: ovcar-5, 48 h
OVCAR-8 = assay: Cytotoxicity against human OVCAR8 cells assessed as effect on cell growth at 10 uM incubated for 48 hrs by sulforhodamine B assay; details: ovcar-8, 48 h
NCI-H322M = assay: Cytotoxicity against human NCI-H322M cells assessed as effect on cell growth at 10 uM incubated for 48 hrs by sulforhodamine B assay
SF-539 = assay: Cytotoxicity against human SF539 cells assessed as effect on cell growth at 10 uM incubated for 48 hrs by sulforhodamine B assay; details: sf-539, 48 h
NCI-H23 = assay: Cytotoxicity against human NCI-H23 cells assessed as effect on cell growth at 10 uM incubated for 48 hrs by sulforhodamine B assay; details: nci-h23, 48 h
SR = assay: Cytotoxicity against human SR cells assessed as effect on cell growth at 10 uM incubated for 48 hrs by sulforhodamine B assay
BT-549 = assay: Cytotoxicity against human BT549 cells assessed as effect on cell growth at 10 uM incubated for 48 hrs by sulforhodamine B assay; details: bt-549, 48 h
MDA-MB-231 = assay: Cytotoxicity against human MDA-MB-231 cells assessed as effect on cell growth at 10 uM incubated for 48 hrs by sulforhodamine B assay; details: mda-mb-231, 48 h
COLO 205 = assay: Cytotoxicity against human COLO205 cells assessed as effect on cell growth at 10 uM incubated for 48 hrs by sulforhodamine B assay; details: colo 205, 48 h
HCC 2998 = assay: Cytotoxicity against human HCC2998 cells assessed as effect on cell growth at 10 uM incubated for 48 hrs by sulforhodamine B assay; details: hcc 2998, 48 h
786-0 = assay: Cytotoxicity against human 786-0 cells assessed as effect on cell growth at 10 uM incubated for 48 hrs by sulforhodamine B assay; details: 786-0, 48 h
NCI-H226 = assay: Cytotoxicity against human NCI-H226 cells assessed as effect on cell growth at 10 uM incubated for 48 hrs by sulforhodamine B assay; details: nci-h226, 48 h
A498 = assay: Cytotoxicity against human A498 cells assessed as effect on cell growth at 10 uM incubated for 48 hrs by sulforhodamine B assay; details: a498, 48 h
SW-620 = assay: Cytotoxicity against human SW620 cells assessed as effect on cell growth at 10 uM incubated for 48 hrs by sulforhodamine B assay; details: sw-620, 48 h
A549 = assay: Cytotoxicity against human A549/ATCC cells assessed as effect on cell growth at 10 uM incubated for 48 hrs by sulforhodamine B assay; details: a549, 48 h

Measured: Activity

O=C(NCC1CCCCC1)[C@@H]1CCC(=O)N1c1ccccc1
Non-Toxic: all assays above

CN(C)/C=C1\C[C@H]2C(=O)N(Cc3ccc(Cl)cc3Cl)C(N(C)C)N2C1=O (stereo not given in full)
Non-Toxic: all assays above

O=C(NCc1ccccc1)[C@@H]1CCC(=O)N1Cc1ccc(Cl)cc1Cl
Non-Toxic: all assays above

COc1ccc(NC(=O)[C@@H]2CCC(=O)N2)cc1OC
Non-Toxic: all assays above
